Patent publication US11629105B2, “Plant treatment composition” (Croda International Plc, priority 2016, dated 2023)
Like-named read-outs stand apart in the source and are kept apart here.

Key:
[1] = Method: The solubility of other substituted ureas and substituted thioureas was tested in this solvent.
[2] = Stability of emulsion of urea derivative solution with ATLOX 4991; format: physicochemical
[3] = Water solubility of solvents (OECD 105); format: physicochemical; conditions: solvent in water; for solubility: water, thermodynamic from solid
[4] = Solvent screening for ability to dissolve diphenyl urea (DPU); format: physicochemical; conditions: solubility of diphenyl urea (DPU) in the named solvent
[5] = 2% w/w urea derivative in AGNIQUE AMD10

## NC(=O)Nc1ccccc1 [N-phenyl urea]
[1]
  Fully Soluble in AGNIQUE AMD10? (2% w/w urea derivative): Yes
[2]
  Emulsion with ATLOX 4991 stable? (4 wks ambient): Yes

## CCCCCCCCCCCCN1CCCC1=O [1-Dodecyl-2-pyrrolidone, 1-dodecyl-2-pyrrolidone]
[3]
  solubility: < 2000 µg/mL

## CCCCNC(=S)NCCCC [N,N′-dibutylthiourea]
[1]
  Fully Soluble in AGNIQUE AMD10? (2% w/w urea derivative): Yes
[2]
  Emulsion with ATLOX 4991 stable? (4 wks ambient): Yes

## O=C1NCCCN1 [N,N′-trimethylene urea]
[1]
  Fully Soluble in AGNIQUE AMD10? (2% w/w urea derivative): No
  solubility in AGNIQUE AMD10: < 2 % w/w

## CCN(C(=O)N(CC)c1ccccc1)c1ccccc1 [1,3-diethyl-1,3-diphenyl urea]
[1]; [5]
  Fully Soluble in AGNIQUE AMD10? (2% w/w urea derivative): Yes
[2]
  Emulsion with ATLOX 4991 stable? (4 wks ambient): Yes

## O=C(NCO)NCO [N,N′-bis(hydroxymethyl) urea]
[1]
  Fully Soluble in AGNIQUE AMD10? (2% w/w urea derivative): No
  solubility in AGNIQUE AMD10: < 2 % w/w

## CCCCCCCCN1CCCC1=O [N-octylpyrrolidone]
[3]
  solubility: < 2000 µg/mL

## CCCCOC(C)COC(C)COC(C)CO (stereo not drawn) [DOWANOL ™ TPnB, Tripropylene glycol n-Butyl ether]
[4]
  DPU Solubility comments: Effectively insoluble

## CCCCCCCC(=O)OC [AGNIQUE ® ME890, Methyl octanoate]
[4]
  DPU Solubility comments: Effectively insoluble

## CCCCOC(=O)CCCCC(=O)OCCCC [CETIOL ® B, Dibutyladipate]
[4]
  DPU Solubility comments: Effectively insoluble

## O=C(NC1CCCCC1)NC1CCCCC1 [N,N′-dicyclohexyl urea]
[1]; [5]
  Fully Soluble in AGNIQUE AMD10? (2% w/w urea derivative): No

## CCNC(=O)NCC [1,3-diethylurea]
[1]
  Fully Soluble in AGNIQUE AMD10? (2% w/w urea derivative): Yes
[2]
  Emulsion with ATLOX 4991 stable? (4 wks ambient): Yes

## CC(O)COc1ccccc1 (stereo not drawn) [DOWANOL ™ PPh, 1-phenoxypropan-2-ol]
[4]
  DPU Solubility comments: Effectively insoluble

## CCCCCCCCCC(=O)N(C)C [AGNIQUE ® AMD10, Capric acid dimethylamide]
[3]
  Water solubility (OECD 105): 574 µg/mL
  solubility: < 1000 µg/mL
